From PubChem BioAssay (NCI)
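The compound was tested at five concentrations on cells cultured in 96-well plates, with a 48-hour exposure period. At the GI50, growth is halved. TGI marks complete inhibition of growth.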

Columns and labels:
Assay in all cases: NCI anticancer screen, dose series, 48 h
786-0 renal = system: 786-0 renal
A498 renal = system: A498 renal
A549 NSCLC = system: A549 NSCLC
ACHN renal = system: ACHN renal
BT-549 breast = system: BT-549 breast
CAKI-1 renal = system: CAKI-1 renal
CCRF-CEM leukemia = system: CCRF-CEM leukemia
COLO 205 colon = system: COLO 205 colon
DU-145 prostate = system: DU-145 prostate
EKVX NSCLC = system: EKVX NSCLC
HCC-2998 colon = system: HCC-2998 colon
HCT-116 colon = system: HCT-116 colon
HCT-15 colon = system: HCT-15 colon
HL-60(TB) leukemia = system: HL-60(TB) leukemia
HOP-62 NSCLC = system: HOP-62 NSCLC
HOP-92 NSCLC = system: HOP-92 NSCLC
HS 578T breast = system: HS 578T breast
HT29 colon = system: HT29 colon
IGROV1 ovarian = system: IGROV1 ovarian
K-562 leukemia = system: K-562 leukemia
KM12 colon = system: KM12 colon
LOX IMVI melanoma = system: LOX IMVI melanoma
M14 melanoma = system: M14 melanoma
MALME-3M melanoma = system: MALME-3M melanoma
MCF7 breast = system: MCF7 breast
MDA-MB-231 breast = system: MDA-MB-231 breast
MDA-MB-435 = system: MDA-MB-435
MDA-MB-468 breast = system: MDA-MB-468 breast
MOLT-4 leukemia = system: MOLT-4 leukemia
NCI-H226 lung = system: NCI-H226 lung
NCI-H23 lung = system: NCI-H23 lung
NCI-H460 lung = system: NCI-H460 lung
NCI-H522 lung = system: NCI-H522 lung
NCI/ADR-RES ovarian = system: NCI/ADR-RES ovarian
OVCAR-3 ovarian = system: OVCAR-3 ovarian
OVCAR-4 ovarian = system: OVCAR-4 ovarian
OVCAR-5 ovarian = system: OVCAR-5 ovarian
OVCAR-8 ovarian = system: OVCAR-8 ovarian
PC-3 prostate = system: PC-3 prostate
RPMI-8226 leukemia = system: RPMI-8226 leukemia
RXF 393 renal = system: RXF 393 renal
SF-268 CNS = system: SF-268 CNS
SF-295 CNS = system: SF-295 CNS
SF-539 CNS = system: SF-539 CNS
SK-MEL-2 melanoma = system: SK-MEL-2 melanoma
SK-MEL-28 melanoma = system: SK-MEL-28 melanoma
SK-MEL-5 melanoma = system: SK-MEL-5 melanoma
SK-OV-3 ovarian = system: SK-OV-3 ovarian
SN12C renal = system: SN12C renal
SNB-19 CNS = system: SNB-19 CNS
SR leukemia = system: SR leukemia
SW-620 colon = system: SW-620 colon
T-47D breast = system: T-47D breast
TK-10 renal = system: TK-10 renal
U251 CNS = system: U251 CNS
UACC-257 melanoma = system: UACC-257 melanoma
UACC-62 melanoma = system: UACC-62 melanoma
UO-31 renal = system: UO-31 renal

`CC(=O)Nc1ccc(-n2cnc3cc(-c4ccc(O)cc4)ccc32)cc1C(F)(F)F` gave a GI50 (786-0 renal) of 8.92 µM, a TGI (786-0 renal) of 39.1 µM and a GI50 (A498 renal) of 25.6 µM. For the same compound, the TGI (A498 renal) was 80.5 µM, the GI50 (A549 NSCLC) was 5.34 µM and the TGI (A549 NSCLC) was > 100 µM. The GI50 (ACHN renal) was 6.62 µM, the TGI (ACHN renal) was 43.7 µM and the GI50 (BT-549 breast) was 4.76 µM. For the same compound, the TGI (BT-549 breast) was 20.3 µM, the GI50 (CAKI-1 renal) was 8.34 µM and the TGI (CAKI-1 renal) was 42 µM. The GI50 (CCRF-CEM leukemia) was 6.65 µM, the TGI (CCRF-CEM leukemia) was > 100 µM and the GI50 (COLO 205 colon) was 11.2 µM. The TGI (COLO 205 colon) was 42.3 µM, the GI50 (DU-145 prostate) was 12.2 µM and the TGI (DU-145 prostate) was 46.9 µM. The GI50 (EKVX NSCLC) was 9.92 µM, the TGI (EKVX NSCLC) was 33.8 µM and the GI50 (HCC-2998 colon) was 5.31 µM. For the same compound, the TGI (HCC-2998 colon) was 26.8 µM, the GI50 (HCT-116 colon) was 6.86 µM and the TGI (HCT-116 colon) was > 100 µM. The GI50 (HCT-15 colon) was 4.75 µM, the TGI (HCT-15 colon) was > 100 µM and the GI50 (HL-60(TB) leukemia) was 2.9 µM. It also gave a TGI (HL-60(TB) leukemia) of 13.5 µM, a GI50 (HOP-62 NSCLC) of 8.41 µM and a TGI (HOP-62 NSCLC) of 30 µM. The GI50 (HOP-92 NSCLC) was 11.6 µM, the TGI (HOP-92 NSCLC) was 29.3 µM and the GI50 (HS 578T breast) was 15.3 µM. For the same compound, the TGI (HS 578T breast) was 98.7 µM, the GI50 (HT29 colon) was 6.03 µM and the TGI (HT29 colon) was > 100 µM. For the same compound, the GI50 (IGROV1 ovarian) was 14.5 µM, the TGI (IGROV1 ovarian) was 87 µM and the GI50 (K-562 leukemia) was 4.53 µM. For the same compound, the TGI (K-562 leukemia) was > 100 µM, the GI50 (KM12 colon) was 3.93 µM and the TGI (KM12 colon) was 50.7 µM. The GI50 (LOX IMVI melanoma) was 5.71 µM, the TGI (LOX IMVI melanoma) was 19.1 µM and the GI50 (M14 melanoma) was 4.25 µM. For the same compound, the TGI (M14 melanoma) was 30.6 µM, the GI50 (MALME-3M melanoma) was 6.92 µM and the TGI (MALME-3M melanoma) was 51.5 µM. The GI50 (MCF7 breast) was 4.13 µM, the TGI (MCF7 breast) was 48.5 µM and the GI50 (MDA-MB-231 breast) was 10 µM. The TGI (MDA-MB-231 breast) was 38.2 µM, the GI50 (MDA-MB-435) was 2.21 µM and the TGI (MDA-MB-435) was 6.17 µM. The GI50 (MDA-MB-468 breast) was 0.225 µM, the TGI (MDA-MB-468 breast) was 10.8 µM and the GI50 (MOLT-4 leukemia) was 4.3 µM. The TGI (MOLT-4 leukemia) was > 100 µM, the GI50 (NCI-H226 lung) was 13.2 µM and the TGI (NCI-H226 lung) was 58.6 µM. For the same compound, the GI50 (NCI-H23 lung) was 6.2 µM, the TGI (NCI-H23 lung) was 33.1 µM and the GI50 (NCI-H460 lung) was 4.81 µM. For the same compound, the TGI (NCI-H460 lung) was > 100 µM, the GI50 (NCI-H522 lung) was 1.6 µM and the TGI (NCI-H522 lung) was 4.73 µM. The GI50 (NCI/ADR-RES ovarian) was 2.25 µM, the TGI (NCI/ADR-RES ovarian) was 7.05 µM and the GI50 (OVCAR-3 ovarian) was 15.7 µM. For the same compound, the TGI (OVCAR-3 ovarian) was > 100 µM, the GI50 (OVCAR-4 ovarian) was 24.1 µM and the TGI (OVCAR-4 ovarian) was > 100 µM. The GI50 (OVCAR-5 ovarian) was 12.2 µM, the TGI (OVCAR-5 ovarian) was 34.4 µM and the GI50 (OVCAR-8 ovarian) was 6.6 µM. It also gave a TGI (OVCAR-8 ovarian) of 68.1 µM, a GI50 (PC-3 prostate) of 8.15 µM and a TGI (PC-3 prostate) of 39.5 µM. It also gave a GI50 (RPMI-8226 leukemia) of 4.73 µM, a TGI (RPMI-8226 leukemia) of 27.6 µM and a GI50 (RXF 393 renal) of 4.31 µM. It also gave a TGI (RXF 393 renal) of 18.5 µM, a GI50 (SF-268 CNS) of 7.57 µM and a TGI (SF-268 CNS) of 84.4 µM. For the same compound, the GI50 (SF-295 CNS) was 5.47 µM, the TGI (SF-295 CNS) was 27.5 µM and the GI50 (SF-539 CNS) was 6.25 µM. For the same compound, the TGI (SF-539 CNS) was 46.7 µM, the GI50 (SK-MEL-2 melanoma) was 2.82 µM and the TGI (SK-MEL-2 melanoma) was 9.73 µM. For the same compound, the GI50 (SK-MEL-28 melanoma) was 6.4 µM, the TGI (SK-MEL-28 melanoma) was 35.3 µM and the GI50 (SK-MEL-5 melanoma) was 5.54 µM. The TGI (SK-MEL-5 melanoma) was 32.9 µM, the GI50 (SK-OV-3 ovarian) was 17 µM and the TGI (SK-OV-3 ovarian) was 61.1 µM. For the same compound, the GI50 (SN12C renal) was 4.26 µM, the TGI (SN12C renal) was 34.5 µM and the GI50 (SNB-19 CNS) was 14 µM. The TGI (SNB-19 CNS) was > 100 µM, the GI50 (SR leukemia) was 2.58 µM and the TGI (SR leukemia) was 12.5 µM. For the same compound, the GI50 (SW-620 colon) was 6.29 µM, the TGI (SW-620 colon) was > 100 µM and the GI50 (T-47D breast) was 4.73 µM. The TGI (T-47D breast) was 43.5 µM, the GI50 (TK-10 renal) was 14.8 µM and the TGI (TK-10 renal) was 34.3 µM. For the same compound, the GI50 (U251 CNS) was 4.99 µM, the TGI (U251 CNS) was 32.4 µM and the GI50 (UACC-257 melanoma) was 10.6 µM. For the same compound, the TGI (UACC-257 melanoma) was 39.3 µM, the GI50 (UACC-62 melanoma) was 3.82 µM and the TGI (UACC-62 melanoma) was 20.6 µM. For the same compound, the GI50 (UO-31 renal) was 4.84 µM and the TGI (UO-31 renal) was 21.1 µM.
